# Source: patent publication US8987265B2, “Substituted 1,3,5-triazine derivatives of fused bicyclic oxalamide compounds for treatment of Hepatitis C” (priority 2012, dated 2015)
# System: HCV pseudoparticles, genotype 1a (H77C) E1 and E2 envelope
# Assay: HCV pseudoparticle infection assay (luciferase, Huh7 cells)
# Format: cell-based
# Conditions: Hepatitis C virus, Huh-7, 48 h, read-out: EC50 (nM) 1a (H77C)
row,Structure (SMILES),EC50 [nM]
1,Cc1ccc(NC(=O)C(=O)N2CC3CN(C(=O)c4ccc(Nc5nc(NC6(c7ccc(Cl)cc7)CC6)nc(OCC(F)(F)F)n5)cc4)CC3C2)cc1 (centres unmarked) [Compound 1001],0.01 to 10
2,O=C(NCc1ccc(F)cc1)C(=O)N1CC2CN(C(=O)c3ccc(Nc4nc(NC5(c6ccc(Cl)cc6)CC5)nc(OCC(F)(F)F)n4)cc3)CC2C1 (centres unmarked) [Compound 1002],0.01 to 10
3,NC(=O)C(=O)N1CC2CN(C(=O)c3ccc(Nc4nc(NC5(c6ccc(Cl)cc6)CC5)nc(OCC(F)(F)F)n4)cc3)CC2C1 (centres unmarked) [Compound 1003],0.01 to 10
4,O=C(C(=O)N1CC2CN(C(=O)c3ccc(Nc4nc(NC5(c6ccc(Cl)cc6)CC5)nc(OCC(F)(F)F)n4)cc3)CC2C1)N1CCOCC1 (centres unmarked) [Compound 1004],0.01 to 10
5,CN(C)C(=O)C(=O)N1CC2CN(C(=O)c3ccc(Nc4nc(NC5(c6ccc(Cl)cc6)CC5)nc(OCC(F)(F)F)n4)cc3)CC2C1 (centres unmarked) [Compound 1005],0.01 to 10
6,O=C(Nc1cccc(F)c1)C(=O)N1CC2CN(C(=O)c3ccc(Nc4nc(NC5(c6ccc(Cl)cc6)CC5)nc(OCC(F)(F)F)n4)cc3)CC2C1 (centres unmarked) [Compound 1006],0.01 to 10
7,O=C(Nc1nncs1)C(=O)N1CC2CN(C(=O)c3ccc(Nc4nc(NC5(c6ccc(Cl)cc6)CC5)nc(OCC(F)(F)F)n4)cc3)CC2C1 (centres unmarked) [Compound 1007],0.01 to 10
8,O=C(Nc1ccc(F)cc1)C(=O)N1CC2CN(C(=O)c3ccc(Nc4nc(NC5(c6ccc(Cl)cc6)CC5)nc(OCC(F)(F)F)n4)cc3)CC2C1 (centres unmarked) [Compound 1008],0.01 to 10
9,Cc1cc(NC(=O)C(=O)N2CC3CN(C(=O)c4ccc(Nc5nc(NC6(c7ccc(Cl)cc7)CC6)nc(OCC(F)(F)F)n5)cc4)CC3C2)no1 (centres unmarked) [Compound 1009],0.01 to 10
10,O=C(Nc1cc(F)cc(F)c1)C(=O)N1CC2CN(C(=O)c3ccc(Nc4nc(NC5(c6ccc(Cl)cc6)CC5)nc(OCC(F)(F)F)n4)cc3)CC2C1 (centres unmarked) [Compound 1010],0.01 to 10
11,O=C(Nc1ccccc1)C(=O)N1CC2CN(C(=O)c3ccc(Nc4nc(NC5(c6ccc(Cl)cc6)CC5)nc(OCC(F)(F)F)n4)cc3)CC2C1 (centres unmarked) [Compound 1011],0.01 to 10
12,CC(C)CNC(=O)C(=O)N1CC2CN(C(=O)c3ccc(Nc4nc(NC5(c6ccc(Cl)cc6)CC5)nc(OCC(F)(F)F)n4)cc3)CC2C1 (centres unmarked) [Compound 1012],0.01 to 10
13,O=C(C(=O)N1CC2CN(C(=O)c3ccc(Nc4nc(NC5(c6ccc(Cl)cc6)CC5)nc(OCC(F)(F)F)n4)cc3)CC2C1)N1CCCCC1 (centres unmarked) [Compound 1013],0.01 to 10
14,O=C(C(=O)N1CC2CN(C(=O)c3ccc(Nc4nc(NC5(c6ccc(Cl)cc6)CC5)nc(OCC(F)(F)F)n4)cc3)CC2C1)N1CCc2ccccc2C1 (centres unmarked) [Compound 1014],0.01 to 10
15,O=C(NC1CCCCC1)C(=O)N1CC2CN(C(=O)c3ccc(Nc4nc(NC5(c6ccc(Cl)cc6)CC5)nc(OCC(F)(F)F)n4)cc3)CC2C1 (centres unmarked) [Compound 1015],0.01 to 10
16,Cc1nnc(NC(=O)C(=O)N2CC3CN(C(=O)c4ccc(Nc5nc(NC6(c7ccc(Cl)cc7)CC6)nc(OCC(F)(F)F)n5)cc4)CC3C2)s1 (centres unmarked) [Compound 1016],0.01 to 10
17,CNC(=O)C(=O)N1CC2CN(C(=O)c3ccc(Nc4nc(NC5(c6ccc(Cl)cc6)CC5)nc(OCC(F)(F)F)n4)cc3)CC2C1 (centres unmarked) [Compound 1017],10 to 1000
18,O=C(Nc1ccc(F)cc1F)C(=O)N1CC2CN(C(=O)c3ccc(Nc4nc(NC5(c6ccc(Cl)cc6)CC5)nc(OCC(F)(F)F)n4)cc3)CC2C1 (centres unmarked) [Compound 1018],0.01 to 10
19,CCc1nnc(NC(=O)C(=O)N2CC3CN(C(=O)c4ccc(Nc5nc(NC6(c7ccc(Cl)cc7)CC6)nc(OCC(F)(F)F)n5)cc4)CC3C2)s1 (centres unmarked) [Compound 1019],0.01 to 10
20,O=C(Nc1nccs1)C(=O)N1CC2CN(C(=O)c3ccc(Nc4nc(NC5(c6ccc(Cl)cc6)CC5)nc(OCC(F)(F)F)n4)cc3)CC2C1 (centres unmarked) [Compound 1020],0.01 to 10

# Same assay, conditions: Hepatitis C virus, Huh-7, 48 h, read-out: EC50 (nM) 1a H77C)
row,Structure (SMILES),EC50 [nM]
1,Cc1ccc(NC(=O)C(=O)N2CC3CN(C(=O)c4ccc(Nc5nc(NC6(c7ccc(Cl)cc7)CC6)nc(OCC(F)(F)F)n5)cc4)CC3C2)cc1 (centres unmarked) [Compound 1001],0.12
2,CN(C)C(=O)C(=O)N1CC2CN(C(=O)c3ccc(Nc4nc(NC5(c6ccc(Cl)cc6)CC5)nc(OCC(F)(F)F)n4)cc3)CC2C1 (centres unmarked) [Compound 1005],2.68
3,CNC(=O)C(=O)N1CC2CN(C(=O)c3ccc(Nc4nc(NC5(c6ccc(Cl)cc6)CC5)nc(OCC(F)(F)F)n4)cc3)CC2C1 (centres unmarked) [Compound 1017],11.1
